Results from patent US20080255134A1 (Artesian Therapeutics, Inc., priority 2004, published 2008).
Read-outs that look alike come from different tables or passages of the source. One block for each molecule: values may come before it.

How the values were obtained:
PDE3 = biological target: T1, PDE3 (Homo sapiens, UniProt Q14432); experiment: In vitro assay for cAMP PDE-3 inhibitory activity; format: biochemical; conditions: human platelet cyclic AMP phosphodiesterase, bound stated
T1 construct: from tissue; host or cells: human platelets
T1 sequence (Q14432 whole entry): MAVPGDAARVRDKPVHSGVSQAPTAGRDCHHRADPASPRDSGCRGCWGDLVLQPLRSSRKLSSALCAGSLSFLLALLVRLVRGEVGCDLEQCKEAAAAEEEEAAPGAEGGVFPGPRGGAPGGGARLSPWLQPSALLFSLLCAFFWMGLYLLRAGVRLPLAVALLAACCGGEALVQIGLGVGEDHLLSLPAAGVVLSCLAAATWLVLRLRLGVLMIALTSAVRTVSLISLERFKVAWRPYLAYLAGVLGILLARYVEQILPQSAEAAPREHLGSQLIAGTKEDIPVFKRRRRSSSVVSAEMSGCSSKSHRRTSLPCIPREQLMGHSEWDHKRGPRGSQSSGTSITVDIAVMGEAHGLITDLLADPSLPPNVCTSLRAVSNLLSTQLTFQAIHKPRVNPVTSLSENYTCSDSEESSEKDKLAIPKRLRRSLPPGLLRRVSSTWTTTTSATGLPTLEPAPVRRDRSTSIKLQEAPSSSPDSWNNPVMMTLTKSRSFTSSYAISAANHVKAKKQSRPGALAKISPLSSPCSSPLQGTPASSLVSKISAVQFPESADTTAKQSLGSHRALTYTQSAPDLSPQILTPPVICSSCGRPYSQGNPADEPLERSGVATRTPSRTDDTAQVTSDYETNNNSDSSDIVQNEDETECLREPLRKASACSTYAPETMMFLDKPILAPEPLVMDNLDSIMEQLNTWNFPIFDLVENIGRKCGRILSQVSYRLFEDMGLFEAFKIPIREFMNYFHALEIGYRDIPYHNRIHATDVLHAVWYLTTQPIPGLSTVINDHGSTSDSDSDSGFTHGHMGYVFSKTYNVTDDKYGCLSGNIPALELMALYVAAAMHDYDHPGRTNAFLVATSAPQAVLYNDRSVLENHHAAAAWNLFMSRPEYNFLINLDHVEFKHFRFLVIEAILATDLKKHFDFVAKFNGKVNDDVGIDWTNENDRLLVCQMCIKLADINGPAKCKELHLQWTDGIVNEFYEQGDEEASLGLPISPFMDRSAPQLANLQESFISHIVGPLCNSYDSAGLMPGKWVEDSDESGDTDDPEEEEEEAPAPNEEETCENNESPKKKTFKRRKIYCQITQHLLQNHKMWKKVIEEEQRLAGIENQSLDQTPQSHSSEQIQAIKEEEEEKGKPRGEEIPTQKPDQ
Protocol: Human platelet cyclic AMP phosphodiesterase was prepared according to the method of Alvarez et al., Mol. Pharmacol. 29: 554 (1986). The PDE incubation medium contained 10 mM Tris-HCl buffer, pH 7.7, 10 mM MgSO4, and 1 μM […] (0.2 μCi) in a total volume of 1.0 mL. Test compounds were dissolved in DMSO immediately prior to addition to the incubation medium, and the resulting mixture was allowed to stand for 10 minutes prior to the addition of enzyme. Following the addition of PDE, the contents were mixed and incubated for 10 minutes at 30° C. Three assays each were performed for each of five test compound concentrations, the mean of the determinations (n=3) at each concentration was plotted, and IC50 values were determined graphically.
(§1) The ability of Compounds 25 and 8c to inhibit PDE3 and β-adrenergic receptor activity was examined both in vitro and in vivo. […] Non-selective β-adrenergic and β1-adrenergic radioligand binding assays were performed using rat cortical membranes; β2-adrenergic receptor assays were performed using membranes isolated from CHO cells expressing human, recombinant b2-adrenergic receptor; non-selective α1-adrenergic receptor assays were performed using rat forebrain membranes; and PDE3 binding assays were performed on human platelets. Values in percent illustrate percent inhibition at 1000 nM concentration.

[1] = biological target: T2, human recombinant beta-1 receptors (Homo sapiens, UniProt P08588); experiment: β1-receptor radioligand binding, [125I] iodocyanopindolol, CHO-REX16 cells; conditions: at 100 nM
T2 construct: expressed in transfected cells; host or cells: CHO-REX16 cells
T2 sequence (P08588 whole entry): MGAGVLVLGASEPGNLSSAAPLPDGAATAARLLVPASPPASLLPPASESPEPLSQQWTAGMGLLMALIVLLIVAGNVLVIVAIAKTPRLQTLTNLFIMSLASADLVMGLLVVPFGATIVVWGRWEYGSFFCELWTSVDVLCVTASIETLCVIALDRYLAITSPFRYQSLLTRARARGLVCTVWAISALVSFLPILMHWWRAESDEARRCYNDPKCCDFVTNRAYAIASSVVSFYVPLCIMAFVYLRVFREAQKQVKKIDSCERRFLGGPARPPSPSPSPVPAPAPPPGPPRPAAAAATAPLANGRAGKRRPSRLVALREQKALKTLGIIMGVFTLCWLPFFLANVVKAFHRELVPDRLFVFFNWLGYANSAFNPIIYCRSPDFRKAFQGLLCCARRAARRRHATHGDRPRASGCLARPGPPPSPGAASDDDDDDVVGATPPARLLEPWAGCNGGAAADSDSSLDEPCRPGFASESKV
Protocol: […] receptor binding was measured in human recombinant beta-1 receptors expressed in CHO-REX16 cells, using [^125I] (-) iodocyanopindolol (2000 Ci/mmol) as the radioligand, as described in Kalaria et al., J. Neurochem. 53: 1772-81 (1998), and Minneman et al., Mol. Pharmacol. 16: 34-46 (1979).

[2] = biological target: T3, human recombinant beta-2 receptors (Homo sapiens, UniProt P07550); experiment: β2-receptor radioligand binding, [125I] iodocyanopindolol, CHO-WT21 cells; conditions: at 100 nM
T3 construct: expressed in transfected cells; host or cells: CHO-WT21 cells
T3 sequence (P07550 whole entry): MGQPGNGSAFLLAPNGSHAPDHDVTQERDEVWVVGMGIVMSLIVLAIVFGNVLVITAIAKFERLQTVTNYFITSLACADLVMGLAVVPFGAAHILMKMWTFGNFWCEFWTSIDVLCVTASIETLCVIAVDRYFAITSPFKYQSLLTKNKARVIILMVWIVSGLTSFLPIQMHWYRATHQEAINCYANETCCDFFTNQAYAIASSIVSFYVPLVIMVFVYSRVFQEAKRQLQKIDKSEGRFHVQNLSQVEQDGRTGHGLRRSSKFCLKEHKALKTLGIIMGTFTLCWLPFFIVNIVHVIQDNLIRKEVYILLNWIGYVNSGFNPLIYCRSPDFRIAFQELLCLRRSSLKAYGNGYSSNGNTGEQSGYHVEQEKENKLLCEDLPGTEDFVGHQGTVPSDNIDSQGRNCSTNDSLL
Protocol: (§2) Non-selective β-adrenergic and β1-adrenergic radioligand binding assays were performed using rat cortical membranes; β2-adrenergic receptor assays were performed using membranes isolated from CHO cells expressing human, recombinant b2-adrenergic receptor; non-selective α1-adrenergic receptor assays were performed using rat forebrain membranes; and PDE3 binding assays were performed on human platelets. Values in percent illustrate percent inhibition at 1000 nM concentration.

α1-adrenergic receptor = experiment: Non-selective α1-adrenergic receptor assay using rat forebrain membranes; format: binding
Protocol: as §1

[3] = test system: White New Zealand male rabbits; experiment: In vivo β-adrenergic blockade, isoproterenol challenge (Protocol 1); parameters: species or system rabbit; conditions: for decrease of left ventricular contractility (% of isoproterenol effect): doses that completely diminished isoproterenol-dependent increase in heart rate: atenolol 1 mg/kg, carvedilol 0.3 mg/kg, Compound 8c 1 mg/kg, mean±SEM
Protocol: (§3) Studies were performed on White New Zealand male rabbits (2-3 kg weight). Animals were initially anesthetized with ketamine (50 mg/kg; IM) and xylazine (6 mg/kg, IM). Subsequently, animals were intubated (via tracheotomy; 3 mm tube) and ventilated with 2% isoflurane (mixed in 95% O2+5% CO2). Each rabbit was instrumented for LV pressure (3F Millar catheter) through right carotid artery, arterial pressure (3F catheter, Cook Instruments) through left femoral artery, which was connected to a fluid-filled pressure transducer (BD Instruments), and ECG. Both pressure transducers were zeroed against atmospheric pressure, and calibrated before each study using an analog manometer. Upon completion of instrumentation, isoflurane was reduced to 1.25%, and the animal was covered for maintenance of body core temperature. Arterial and LV blood pressures (LVP) and the ECG signals were simultaneously digitally recorded on a PC. The recording system (Gould Instruments) and the corresponding software (Ponema, Gould Instruments) facilitated detailed calculation of various parameters directly from all signals and record on a separate file with a 1 sec resolution. Upon completion of the study protocol, rabbits were euthenized by isoflurane overdose (5% for at least 1 minute) and cardiac arrest through IV infusion of 5 ml 3 molar potassium chloride.
(§4) Once the physiological variables were stable, effects of each drug on hemodynamics and ECG were determined based on two different protocols: 1) infusion of a compound of the present invention to determine the effects of the compound itself mainly on contractility, and other hemodynamic indices; and 2) infusion of a compound of the present invention while the system was challenged with 0.5 ug/kg isoproterenol to determine the beta-adrenergic antagonism properties of each tested compound.
(§5) White New Zealand male rabbits (2-3 kg) were anesthetized and ventilated (95% O2+5% CO2) with 1.25% isoflurane. Each animal was instrumented for LV pressure (Millar, through left carotid artery), arterial pressure (left femoral artery), infusion (jugular vein), and electrocardiogram. The animals were administered intravenously based on one of these protocols:
Protocol 1: β-adrenergic blockade (isoproterenol challenge).

[4] = test system: White New Zealand male rabbits; experiment: In vivo hemodynamic effects of compounds administered alone (Protocol 2); parameters: species or system rabbit; conditions: for mean arterial pressure: doses that completely diminished isoproterenol-dependent increase in heart rate, Protocol 2, FIG. 15; for left ventricular contractility when administered alone: protocol 2, relative to control, FIGS. 2, 12
Protocol: as §3, §4, §5
Protocol 2: PDE3 inhibition (effects of compounds when administered alone).

[5] = test system: naive anesthetized canines; experiment: Contractility in naive anesthetized canines (protocol 2); format: in vivo, canine; conditions: administered alone (protocol 2), FIG. 17
β1-adrenergic receptor = biological target: T4, β1-adrenergic receptor (Rattus norvegicus, UniProt P18090); experiment: β1-adrenergic radioligand binding assay using rat cortical membranes; conditions: at 1000 nM concentration, read-out: β1-adrenergic percent inhibition
T4 construct: from tissue; host or cells: rat cortical membranes
T4 sequence (P18090 whole entry): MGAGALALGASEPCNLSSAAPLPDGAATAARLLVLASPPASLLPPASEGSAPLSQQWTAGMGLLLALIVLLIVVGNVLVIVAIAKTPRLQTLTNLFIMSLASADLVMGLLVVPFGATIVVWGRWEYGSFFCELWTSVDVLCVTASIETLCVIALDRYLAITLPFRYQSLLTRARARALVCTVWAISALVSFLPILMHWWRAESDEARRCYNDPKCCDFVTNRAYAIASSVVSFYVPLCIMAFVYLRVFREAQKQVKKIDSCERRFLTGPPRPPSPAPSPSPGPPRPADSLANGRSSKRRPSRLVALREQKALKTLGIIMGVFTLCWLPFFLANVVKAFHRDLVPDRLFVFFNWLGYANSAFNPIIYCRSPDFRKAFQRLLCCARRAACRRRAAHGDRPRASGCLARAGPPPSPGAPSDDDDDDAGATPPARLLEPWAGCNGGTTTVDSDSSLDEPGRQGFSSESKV
Protocol: as §2

[6] = read-out: PDE IC50 inhibition values

Compound: COCCc1ccc(OC[C@@H](O)CNCCCCOc2ccc(C3=NNC(=O)CC3)cc2Cl)cc1 [Compound 44]
- IC50 (PDE3; read-out: PDE3 inhibition IC50): < 1 µM
- inhibition at 0.1 µM [1]: > 25%

Compound: COc1ccccc1OCCNCC(O)COc1cccc2[nH]c3ccccc3c12 (stereo not shown) [Carvedilol, reference compound]
- contractility (LV+dP/dtmax) at ED50 ([3]; Compound 25 0.3 mg/kg, carvedilol 0.1 mg/kg, Protocol 1, FIG. 13): decreased this parameter
- ED50 ([3]; Oryctolagus cuniculus, isoproterenol challenge (0.5 μg/kg), intravenous, read-out: ED50, dose that diminished isoproterenol-dependent increase in HR by 50%): 0.1 mg/kg
- relaxation properties (Tau) at ED50 ([3]; compared to control, Protocol 1, FIG. 13): negative lusitropic effect
- decrease of left ventricular contractility (% of isoproterenol effect) [3]: 82±7%
- mean arterial pressure [4]: decreased mean arterial pressure
- left ventricular contractility when administered alone [4]: decreased contractility
- contractility in naive anesthetized canines [5]: decreased this parameter at the higher doses

Compound: CC(C)NCC(O)COc1ccc(CC(N)=O)cc1 (stereo not shown) [Atenolol, reference compound]
- inhibition at 1 µM (β1-adrenergic receptor): 23%
- α1-adrenergic IC50, nM (α1-adrenergic receptor): inactive
- decrease of left ventricular contractility (% of isoproterenol effect) [3]: 82±2%
- mean arterial pressure [4]: decreased mean arterial pressure
- left ventricular contractility when administered alone [4]: decreased contractility

Compound: CC(C)(CNC(=O)COc1ccc(C2=NNC(=O)CC2)cc1Cl)NCC(O)COc1cccc2[nH]c3ccccc3c12 (stereo not shown) [Compound 49, N-{2-[3-(9H-carbazol-4-yloxy)-2-hydroxy-propylamino]-2-methyl-propyl}-2-[2-chloro-4-(6-oxo-1,4,5,6-tetrahydro-pyridazin-3-yl)-phenoxy]-acetamide]
- IC50 (PDE3; read-out: PDE3 inhibition IC50): < 1 µM
- IC50 (PDE3; [6]): < 0.1 µM
- inhibition at 0.1 µM [1]: > 25%
- inhibition at 0.1 µM [2]: > 25%

Compound: COCCc1ccc(OC[C@@H](O)CNCCOc2ccc(C3=NNC(=O)CC3)cc2Cl)cc1 [Compound 41, 6-[3-Chloro-4-(3-{(S)-2-hydroxy-propylamino]-ethoxy}-phenyl)-4,5-dihydro-2H-pyridazin-3-one]
- IC50 (PDE3; read-out: PDE3 inhibition IC50): < 1 µM
- IC50 (PDE3; [6]): < 0.1 µM
- inhibition at 0.1 µM [1]: > 25%

Compound: COCCc1ccc(OC[C@@H](O)CNC(C)(C)CNC(=O)COc2ccc(C3=NNC(=O)CC3)cc2Cl)cc1 [Compound 40, 2-[2-Chloro-4-(6-oxo-1,4,5,6-tetrahydro-pyridazin-3-yl)-phenoxy]-N-(2-{(S)-2-hydroxy-3-[4-(2-methoxy-ethyl)-phenoxy]-propylamino}-2-methyl-propyl)-acetamide]
- IC50 (PDE3; read-out: PDE3 inhibition IC50): < 1 µM

Compound: O=C1CCC(c2ccc(OCCNCC(O)COc3cccc4[nH]ccc34)c(Cl)c2)=NN1 (stereo not shown) [Compound 52]
- IC50 (PDE3; read-out: PDE3 inhibition IC50): < 1 µM
- IC50 (PDE3; [6]): < 0.1 µM

Compound: O=C1CCC(c2ccc(OCC(=O)N3CC(NCC(O)COc4cccc5[nH]c6ccccc6c45)C3)c(Cl)c2)=NN1 (stereo not shown) [Compound 75, 6-[4-(2-{3-[3-(9H-Carbazol-4-yloxy)-2-hydroxy-propylamino]-azetidin-1-yl}-2-oxo-ethoxy)-3-chloro-phenyl]-4,5-dihydro-2H-pyridazin-3-one]
- IC50 (PDE3; read-out: PDE3 inhibition IC50): < 1 µM

Compound: O=C1CCC(c2ccc(OCCCNCC(O)COc3cccc4[nH]c5ccccc5c34)c(Cl)c2)=NN1 (stereo not shown) [Compound 64, 6-(4-{3-[3-(9H-Carbazol-4-yloxy)-2-hydroxy-propylamino]-propoxy}-3-chloro-phenyl)-4,5-dihydro-2H-pyridazin-3-one]
- IC50 (PDE3; read-out: PDE3 inhibition IC50): < 1 µM
- IC50 (PDE3; [6]): < 0.1 µM

Compound: COCCc1ccc(OC[C@@H](O)CNC2CN(C(=O)COc3ccc(C4=NNC(=O)CC4)cc3Cl)C2)cc1 [Compound 48, 6-{3-Chloro-4-[2-(3-{(S)-2-hydroxy-3-[4-(2-methoxy-ethyl)-phenoxy]-propylamino}-azetidin-1-yl)-2-oxo-ethoxy]-phenyl}-4,5-dihydro-2H-pyridazin-3-one]
- IC50 (PDE3; read-out: PDE3 inhibition IC50): < 1 µM

Compound: O=C1CCC(c2ccc(OCC(=O)N3CCC(NCC(O)COc4cccc5[nH]c6ccccc6c45)CC3)c(Cl)c2)=NN1 (stereo not shown) [Compound 63, 6-[4-(2-{4-[3-(9H-Carbazol-4-yloxy)-2-hydroxy-propylamino]-piperidin-1-yl}-2-oxo-ethoxy)-3-chloro-phenyl]-4,5-dihydro-2H-pyridazin-3-one]
- IC50 (PDE3; read-out: PDE3 inhibition IC50): < 1 µM

The next lines start with the values.

- IC50 (PDE3; read-out: PDE3 inhibition IC50): < 1 µM
- IC50 (PDE3; [6]): < 0.1 µM
- inhibition at 0.1 µM [1]: > 25%
- inhibition at 0.1 µM [2]: > 25%
Compound: O=C1CCC(c2ccc(OCC(=O)N3CCC(NC[C@H](O)COc4ccccc4C(F)(F)F)CC3)c(Cl)c2)=NN1 [Compound 8g, 6-[3-chloro-4-(2-{4-[2-hydroxy-3-(2-trifluoromethyl-phenoxy)-propylamino]-piperidin-1-yl}-2-oxo-ethoxy)-phenyl]-4,5-dihydro-2H-pyridazin-3-one]

- IC50 (PDE3; read-out: PDE3 inhibition IC50): < 1 µM
- IC50 (PDE3; [6]): < 0.1 µM
- inhibition at 0.1 µM [1]: > 25%
- inhibition at 0.1 µM [2]: > 25%
Compound: O=C1CCC(c2ccc(OCC(=O)N3CCC(NC[C@H](O)COc4ccccc4Br)CC3)c(Cl)c2)=NN1 [Compound 8d, 6-[4-(2-{4-[3-(2-bromo-phenoxy)-2-hydroxy-propylamino]-piperidin-1-yl}-2-oxo-ethoxy)-3-chloro-phenyl]-4,5-dihydro-2H-pyridazin-3-one]

- IC50 (PDE3; read-out: PDE3 inhibition IC50): < 1 µM
Compound: COCCc1ccc(OC[C@@H](O)CNC2CCN(C(=O)COc3ccc(C4=NNC(=O)CC4)cc3Cl)CC2)cc1 [Compound 8r, 6-{3-chloro-4-[2-(4-{2-hydroxy-3-[4-(2-methoxy-ethyl)-phenoxy]-propylamino}-piperidin-1-yl)-2-oxo-ethoxy]-phenyl}-4,5-dihydro-2H-pyridazin-3-one]

- IC50 (PDE3; read-out: PDE3 inhibition IC50): < 1 µM
- inhibition at 0.1 µM [2]: > 25%
Compound: Cc1ccc(OC[C@@H](O)CNC2CCN(C(=O)COc3ccc(C4=NNC(=O)CC4)cc3Cl)CC2)cc1 [Compound 8p, 6-(3-chloro-4-{2-[4-(2-hydroxy-3-p-tolyloxy-propylamino)-piperidin-1-yl]-2-oxo-ethoxy}-phenyl)-4,5-dihydro-2H-pyridazin-3-one]

- IC50 (PDE3; read-out: PDE3 inhibition IC50): < 1 µM
Compound: N#Cc1ccccc1OC[C@@H](O)CNC1CCN(C(=O)COc2ccc(C3=NNC(=O)CC3)cc2Cl)CC1 [Compound 8e, 2-[3-(1-{2-[2-chloro-4-(6-oxo-1,4,5,6-tetrahydro-pyridazin-3-yl)-phenoxy]-acetyl}-piperidin-4-ylamino)-2-hydroxy-propoxy]-benzonitrile]

- IC50 (PDE3; read-out: PDE3 inhibition IC50): < 1 µM
Compound: N#Cc1cccc(OC[C@@H](O)CNC2CCN(C(=O)COc3ccc(C4=NNC(=O)CC4)cc3Cl)CC2)c1 [Compound 8m, 3-[3-(1-{2-[2-chloro-4-(6-oxo-1,4,5,6-tetrahydro-pyridazin-3-yl)-phenoxy]-acetyl}-piperidin-4-ylamino)-2-hydroxy-propoxy]-benzonitrile]
